This assay concerns C2C12 myotubes. Kind of assay: In vitro puromycin incorporation (muscle protein synthesis) in differentiated C2C12 myotubes stimulated with insulin + leucine, Western blot. Format: cell-based, mouse. Here is the method:
C2C12 mouse myoblasts are obtained from the American Type Culture Source Collection (no. CRL-1772). Myoblasts are cultured at 37° C. in an atmosphere of 5% CO2 in grown medium consisting of Dulbecco's modified Eagle's medium (DMEM) supplemented with 10% fetal calf serum and antibiotics. Myotube C2C12 differentiation is induced by withdrawing fetal calf serum from confluent cells and adding 10 μg/ml insulin, 5 μg/ml transferrin and 2% horse serum. 8-days-differentiated C2C12 myotubes are treated with medium containing EPA and/or MA for 16 hours. After a 4-hour starvation period, C2C12 myotubes were treated with insulin (100 nM)+Leucine (5 mM) for in total 60 min. A limitation of growing myotubes in vitro is that the cells are not able to produce insulin when administered leucine whereas in vivo the pancreas starts producing insulin when leucine is administered to a subject. Common to this model, to compensate for this limitation, the in vitro experiment requires the separate administration of insulin. […] By western-Blot analyses the level of protein synthesis was analyzed. This gives quantitative information on the incorporation of puromycin which is a measure for intracellular pathways regulating protein synthesis (Akt, mTOR) and/or a direct measure of protein synthesis. […]

Take `CCCCCCCCCCCCCC(=O)O` [MA, myristic acid]: where the note is “25 μM EPA without MA, or 25 or 50 μM MA without EPA, 16 hours, then insulin (100 nM)+Leucine (5 mM) 60 min, relative to control without stimulation and without fatty acids (indexed at 100)”, the “puromycin incorporation, individual fatty acid” value is reported as “have an effect on puromycin incorporation”. Moreover, where the note is “MA without EPA, 25 μM vs 50 μM, insulin + leucine stimulation”, the “puromycin incorporation, effect of raising MA from 25 μM to 50 μM vs adding 25 μM EPA to 25 μM MA” value is recorded as “much smaller effect”.

The record behind these values is US20220288002A1, “Composition comprising EPA, MA and leucine for improving muscle function” (N.V. Nutricia, priority 2019, published 2022).
